Laboratory results as given in patent publication US20100261246A1, “METHOD FOR INHIBITING TELOMERASE REACTION” (PANASONIC CORPORATION, priority 2009, published 2010).

Test system: G-quadruplex structure (human telomeric oligo DNA)
Test: Absorbance 480 to 800 nm of phthalocyanine mixed with G-quadruplex solutions
Format: binding
Details: 15 μM compound solution, 50 mM HEPES, 100 mM NaCl, pH7
Protocol: Hereinafter, the interaction between anionic phthalocyanines and various DNAs was studied in Examples 6, 7, 8 and 9. For this purpose, a solution containing a G-quadruplex structure, a solution including a single-stranded DNA, and a solution containing a double-stranded DNA were first prepared according to the following procedures.
A solution of 50 mM HEPES and 100 mM NaCl, pH7 (total volume: 100 μL) containing a single-stranded DNA consisting of a sequence of 5′-[…]-3′ (SEQ ID NO: 2; this sequence being similar to a sequence of a human telomere portion, and thus the DNA referred to as “human telomeric oligo DNA” hereafter) was incubated at 90° C. for 5 min, and thereafter cooled to 0° C. at a rate of temperature fall of 2° C./min, followed by finally incubating at 0° C. for 2 hrs.
The concentrations of the human telomeric oligo DNA contained in the solution were 0, 0.5, 2, 5, 10, 25, 50 and 100 μM.
The absolute values of the positive and negative peaks were maximized for the solution having the human telomeric oligo DNA concentration of 100 μM, and dropped in the order of 50, 25, 10, 5, 2 and 0.5 μM. […] Hereafter, G-quadruplex solutions prepared from the solutions having human telomeric oligo DNA concentrations of 100, 50, 25, 10, 5, 2 and 0.5 μM are referred to as G-quadruplex solutions A, B, C, D, E, F and G, respectively. On the other hand, the solution without the human telomeric oligo DNA contained therein is referred to as NC solution.
First, a solution of 50 mM HEPES and 100 mM NaCl, pH7 (total volume: 20 μL) containing 15 μM CuPC was prepared. Then, this CuPC solution was mixed with each of the G-quadruplex solutions C, D, E and F and the NC solution, and the absorbance of these liquid mixtures were measured at 480 to 800 nm.
First, a solution of 50 mM HEPES and 100 mM NaCl, pH7 (total volume: 20 μL) containing 15 μM NiPC was prepared. Then, this NiPC solution was mixed with each of the G-quadruplex solutions D, E, F and G, and the NC solution, and the absorbance of these liquid mixtures were measured at 480 to 800 nm.
First, a solution of 50 mM HEPES and 100 mM NaCl, pH7 (total volume: 20 μL) containing 15 μM PC was prepared. Then, this PC solution was mixed with each of the G-quadruplex solutions D, E, F and G, and the NC solution, and the absorbance of these liquid mixtures were measured at 480 to 800 nm.
First, a solution of 50 mM HEPES and 100 mM NaCl, pH7 (total volume: 20 μL) containing 15 μM CoPC was prepared. Then, this CoPC solution was mixed with each of the G-quadruplex solutions B, C, D and G, and the NC solution, and the absorbance of these liquid mixtures were measured at 480 to 800 nm.

Substance | interaction with the G-quadruplex structure (absorption peak)
Nickel(II) phthalocyanine tetrasulfonic acid tetrasodium salt [NiPC] | an interaction occurred
Copper(II) phthalocyanine-3,4′,4″,4′″-tetrasulfonic acid tetrasodium salt [CuPC] | an interaction occurred
